Reference: ChEMBL document CHEMBL1126393, “Design, synthesis and activity against human cytomegalovirus of non-phosphorylatable analogs of toyocamycin, sangivamycin and thiosangivamycin” (Bioorg Med Chem Lett, 1992)
pIC50: −log10 of the molar value.

Legend:
HFF [1] = assay: In vitro inhibition of human cytomegalovirus in HFF cells by plaque reduction assay.; assay type: functional, cell-based
[2] = Cytotoxicity of compound in uninfected cells determined by examining the effect on growth of KBcells; assay type: functional, Homo sapiens
HFF [3] = assay: Visual cytotoxicity of compound in uninfected cells determined by examining the effect on growth of HFF cells; assay type: functional, Homo sapiens
[4] = Selectivity index is the ratio of CC50 to IC50; assay type: functional
HFF [5] = assay: Cytotoxicity of compound in uninfected cells determined by examining the effect on growth of HFF cells; assay type: functional, Homo sapiens

| Compound | pIC50 (HFF [1]) | Cytotoxicity [2] [µM] | Cytotoxicity (HFF [3]) [µM] | SI [4] | Cytotoxicity (HFF [5]) [µM] |
| --- | --- | --- | --- | --- | --- |
| C=CCn1cc(C(N)=O)c2c(N)ncnc21 | < 4.00 | 90 | – | – | – |
| Cn1cc(C(N)=O)c2c(N)ncnc21 | < 4.00 | >100 | – | – | – |
| N#Cc1cn(COCCO)c2ncnc(N)c12 | < 4.00 | – | >100 | – | – |
| C=CCn1cc(C#N)c2c(N)ncnc21 | < 4.00 | >100 | – | – | – |
| N#Cc1cn(COC(CO)CO)c2ncnc(N)c12 | < 4.00 | – | >100 | – | – |
| NC(=S)c1cn(COCCO)c2ncnc(N)c12 | 5.06 | 115 | – | 13 | – |
| Cn1cc(C#N)c2c(N)ncnc21 | < 4.00 | >100 | – | – | – |
| NC(=S)c1cn(COC(CO)CO)c2ncnc(N)c12 | 5.21 | – | – | – | >100 |
| CCCn1cc(C(N)=O)c2c(N)ncnc21 | < 4.00 | 90 | – | – | – |
| C=CCn1cc(C(N)=S)c2c(N)ncnc21 | 5.68 | 19 | – | 9 | – |
| Nc1nc2c(ncn2COC(CO)CO)c(=O)[nH]1 [GANCICLOVIR] | 5.08 | >100 | – | – | – |
| CCCn1cc(C#N)c2c(N)ncnc21 | 4.44 | >100 | – | – | – |
| CCCn1cc(C(=N)S)c2c(N)ncnc21 | 5.92 | 17 | – | 14 | – |
| NC(=O)c1cn(COCCO)c2ncnc(N)c12 | < 4.00 | – | – | – | >100 |
| Cn1cc(C(=N)S)c2c(N)ncnc21 | 5.92 | 14.7 | – | 12 | – |
| NC(=O)c1cn(COC(CO)CO)c2ncnc(N)c12 | < 4.00 | – | – | – | >100 |
